Data on 19 compounds can be found in patent publication US20070149557A1, “CXCR3 antagonists” (Amgen Inc., priority 2005, published 2007).

Molecules are shown by their SMILES.

The experiment concerns the target T1, CXCR3 (Homo sapiens, UniProt P49682).
T1 sequence (P49682 1-368): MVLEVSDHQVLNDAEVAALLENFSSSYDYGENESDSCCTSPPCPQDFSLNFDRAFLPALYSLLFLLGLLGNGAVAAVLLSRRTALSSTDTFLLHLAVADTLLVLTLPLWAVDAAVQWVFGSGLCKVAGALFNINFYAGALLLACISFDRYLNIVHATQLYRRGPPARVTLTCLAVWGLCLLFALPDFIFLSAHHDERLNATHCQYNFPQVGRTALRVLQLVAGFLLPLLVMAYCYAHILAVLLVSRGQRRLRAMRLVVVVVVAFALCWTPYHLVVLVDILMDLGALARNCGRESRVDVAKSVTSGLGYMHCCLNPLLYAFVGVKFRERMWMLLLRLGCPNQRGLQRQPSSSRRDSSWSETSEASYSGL
The experiment can be described thus: 125I-IP-10 binding assay. Conditions: displacement of 125I-IP-10. On the technique in general: In a radioligand displacement assay an active substance lowers the binding of a labelled ligand.

A word on the IC50: it is the concentration needed to halve the response being measured. A lower IC50 goes with inhibition by little substance. Consider `FC(F)(F)c1cnc(N2CCC3(CC2)NCCc2c3[nH]c3ccccc23)c(Cl)c1` [Example 1], for which the IC50 was < 0.5 µM.

On to `FC(F)(F)c1ccc(N2CCC3(CC2)NCCc2c3[nH]c3ccccc23)nc1` [Example 2], for which the IC50 was > 1 µM.

In the case of `Clc1cnc(N2CCC3(CC2)NCCc2c3[nH]c3ccccc23)c(Cl)c1` [Example 3], the IC50 is > 1 µM.

As for `Cc1cc(C(F)(F)F)cnc1N1CCC2(CC1)NCCc1c2[nH]c2ccccc12` [Example 4], the IC50 is > 1 µM.

In the case of `FC(F)(F)c1ccc(N2CCC3(CC2)NCCc2c3[nH]c3ccccc23)c(Cl)c1` [Example 5], the concentration for half-maximal inhibition (IC50) is < 0.5 µM.

Consider `FC(F)(F)c1ccc(Cl)c(N2CCC3(CC2)NCCc2c3[nH]c3ccccc23)c1` [Example 6], for which the IC50 was > 1 µM.

For `FC(F)(F)c1ccc(N2CCC3(CC2)NCCc2c3[nH]c3ccccc23)cc1` [Example 7], the IC50 was > 1 µM.

Consider `O=[N+]([O-])c1cc(C(F)(F)F)ccc1N1CCC2(CC1)NCCc1c2[nH]c2ccccc12` [Example 8], for which the IC50 was > 1 µM.

In turn, `NC(=O)c1cc(C(F)(F)F)ccc1N1CCC2(CC1)NCCc1c2[nH]c2ccccc12` [Example 9] yielded an IC50 of 0.5 to 1 µM.

Regarding `N#Cc1cc(C(F)(F)F)ccc1N1CCC2(CC1)NCCc1c2[nH]c2ccccc12` [Example 10], the IC50 is > 1 µM.

On to `FC(F)(F)c1ccc(N2CCC3(CC2)NCCc2c3[nH]c3ccccc23)c(C(F)(F)F)c1` [Example 11], for which the IC50 was > 1 µM.

For `Fc1cc(C(F)(F)F)ccc1N1CCC2(CC1)NCCc1c2[nH]c2ccccc12` [Example 12], the IC50 was > 1 µM.

Regarding `FC(F)(F)c1ccc(N2CCC3(CC2)NCCc2c3[nH]c3ccccc23)c(Br)c1` [Example 13], the IC50 is > 1 µM.

In the case of `FC(F)(F)c1cc(Cl)c(N2CCC3(CC2)NCCc2c3[nH]c3ccccc23)c(Cl)c1` [Example 14], the IC50 was > 1 µM.

In the case of `O=[N+]([O-])c1cc(C(F)(F)F)cc(Cl)c1N1CCC2(CC1)NCCc1c2[nH]c2ccccc12` [Example 15], the IC50 was < 0.5 µM.

As to `Clc1ccc(N2CCC3(CC2)NCCc2c3[nH]c3ccccc23)c(Cl)c1` [Example 16], the IC50 was > 1 µM.

Consider `Clc1cc(I)ccc1N1CCC2(CC1)NCCc1c2[nH]c2ccccc12` [Example 17], for which the IC50 was > 1 µM.

Regarding `O=[N+]([O-])c1ccc(N2CCC3(CC2)NCCc2c3[nH]c3ccccc23)c(Cl)c1` [Example 18], the IC50 is > 1 µM.

As for `COC(=O)c1ccc(N2CCC3(CC2)NCCc2c3[nH]c3ccccc23)c(Cl)c1` [Example 19], the IC50 was > 1 µM.
